These results are taken from ChEMBL document CHEMBL4732150 (J Med Chem, 2021).

Data set [1] is described as follows: Cmax in Sprague-Dawley rat at 2 mg/kg, IG administered as single dose and measured upto 24 hrs by LC-MS/MS analysis. The settings on record: in vivo, po. Type of data set: ADME, organism-based. Also noted: route […], dose 2 mg/kg, time <=24.
Data set [2] can be described thus: in vivo. The settings on record: Sprague-Dawley, rat, iv, 2 mg/kg.
A short description of data set [3]: Drug metabolism in CD1 mouse liver microsomes assessed as 3,3-dideuterio-N-[4-methoxy-2-(methylamino)-5-[[4-[1-(trideuteriomethyl)indol-3-yl]pyrimidin-2-yl]amino]phenyl]prop-2-enamide metabolite formation preincubated for 10 mins under shaking condition followed by NADPH generating system addition and measured up to 60 mins by LC-MS/MS analysis. Type of data set: ADME, Microsome. The conditions noted are these: 1 h, time <=70 min.

The nature of data set [4]: Drug metabolism in Sprague-Dawley rat liver microsomes assessed as 3,3-dideuterio-N-[4-methoxy-2-(methylamino)-5-[[4-[1-(trideuteriomethyl)indol-3-yl]pyrimidin-2-yl]amino]phenyl]prop-2-enamide metabolite formation preincubated for 10 mins under shaking condition followed by NADPH generating system addition and measured up to 60 mins by LC-MS/MS analysis. Type of data set: ADME, Microsome. The conditions noted are these: 1 h, time <=70 min.

The nature of data set [5]: Drug metabolism in Beagle dog liver microsomes assessed as 3,3-dideuterio-N-[2-(2-dimethylaminoethylamino)-4-methoxy-5-[[4-[1-(trideuteriomethyl)indol-3-yl]pyrimidin-2-yl]amino]phenyl]prop-2-enamide metabolite formation preincubated for 10 mins under shaking condition followed by NADPH generating system addition and measured up to 60 mins by LC-MS/MS analysis. Type of data set: ADME, Canis lupus familiaris, Microsome. The conditions noted are these: 1 h, time <=70 min.

Data set [6] is described as follows: Drug metabolism in CD1 mouse liver microsomes assessed as 3,3-dideuterio-N-[2-(2-dimethylaminoethylamino)-4-methoxy-5-[[4-[1-(trideuteriomethyl)indol-3-yl]pyrimidin-2-yl]amino]phenyl]prop-2-enamide metabolite formation preincubated for 10 mins under shaking condition followed by NADPH generating system addition and measured up to 60 mins by LC-MS/MS analysis. Type of data set: ADME, Microsome. The conditions noted are these: 1 h, time <=70 min.

A short description of data set [7]: Intrinsic clearance in CD1 mouse liver microsomes preincubated for 10 mins under shaking condition followed by NADPH generating system addition and measured up to 60 mins by LC-MS/MS analysis. It is filed as ADME, Microsome. The settings on record: 1 h, time <=70 min.
Data set [8] is described as follows: Tmax in Sprague-Dawley rat at 12 mg/kg, IG administered as single dose and measured upto 24 hrs by LC-MS/MS analysis. It is filed as ADME, organism-based. The settings on record: in vivo, po.
Data set [9] is described as follows: Drug metabolism in CD1 mouse liver microsomes assessed as 3,3-dideuterio-N-[4-methoxy-2-[methyl-[2-(methylamino)ethyl]amino]-5-[[4-[1-(trideuteriomethyl)indol-3-yl]pyrimidin-2-yl]amino]phenyl]prop-2-enamide metabolite formation preincubated for 10 mins under shaking condition followed by NADPH generating system addition and measured up to 60 mins by LC-MS/MS analysis. The settings on record: 1 h, time <=70 min. Type of data set: ADME, Microsome.

A short description of data set [10]: in vivo. The conditions noted are these: Sprague-Dawley, rat, po, 12 mg/kg.
The nature of data set [11]: Oral bioavailability in Sprague-Dawley rat at 12 mg/kg, IG administered as single dose and measured upto 24 hrs by LC-MS/MS analysis. It is filed as ADME, organism-based. The settings on record: in vivo.
Data set [12] can be described thus: Drug metabolism in cynomolgus monkey liver microsomes assessed as 3,3-dideuterio-N-[4-methoxy-2-(methylamino)-5-[[4-[1-(trideuteriomethyl)indol-3-yl]pyrimidin-2-yl]amino]phenyl]prop-2-enamide metabolite formation preincubated for 10 mins under shaking condition followed by NADPH generating system addition and measured up to 60 mins by LC-MS/MS analysis. Type of data set: ADME, Macaca fascicularis, Microsome. The conditions noted are these: 1 h, time <=70 min.

Data set [13] is described as follows: Toxicity in Balb/c nude mouse xenografted with human NCI-H1975 cells harboring EGFR L858R/T790M mutant assessed as change in body weight at 3 to 5 mg/kg, po QD administered via gavage for 24 days and measured twice weekly. The conditions noted are these: in vivo, 576 h, dose 3-5 mg/kg, time 24 day. Type of data set: organism-based.
The nature of data set [14]: Cmax in Sprague-Dawley rat at 2 mg/kg, iv administered as single dose and measured upto 24 hrs by LC-MS/MS analysis. It is filed as ADME, organism-based. Further details: route intravenous, dose 2 mg/kg, time <=24. The conditions noted are these: in vivo.
Data set [15] is described as follows: Cmax in Sprague-Dawley rat at 6 mg/kg/day, IG administered for 7 consecutive days by LC-MS/MS analysis. It is filed as ADME, organism-based. Further details: route […], time 7 day, dose 6 mg/kg/day. The conditions noted are these: in vivo, po.
Data set [16] can be described thus: Drug metabolism in cynomolgus monkey liver microsomes assessed as 3,3-dideuterio-N-[4-methoxy-2-[methyl-[2-(methylamino)ethyl]amino]-5-[[4-[1-(trideuteriomethyl)indol-3-yl]pyrimidin-2-yl]amino]phenyl]prop-2-enamide metabolite formation preincubated for 10 mins under shaking condition followed by NADPH generating system addition and measured up to 60 mins by LC-MS/MS analysis. It is filed as ADME, Macaca fascicularis, Microsome. The conditions noted are these: 1 h, time <=70 min.

Data set [17] is described as follows: Drug metabolism in cynomolgus monkey liver microsomes assessed as 3,3-dideuterio-N-[2-(2-dimethylaminoethylamino)-4-methoxy-5-[[4-[1-(trideuteriomethyl)indol-3-yl]pyrimidin-2-yl]amino]phenyl]prop-2-enamide metabolite formation preincubated for 10 mins under shaking condition followed by NADPH generating system addition and measured up to 60 mins by LC-MS/MS analysis. It is filed as ADME, Macaca fascicularis, Microsome. The conditions noted are these: 1 h, time <=70 min.

Data set [18] can be described thus: Tmax in Sprague-Dawley rat at 2 mg/kg, IG administered as single dose and measured upto 24 hrs by LC-MS/MS analysis. Type of data set: ADME, organism-based. The conditions noted are these: in vivo, po.
Data set [19] can be described thus: Cmax in Sprague-Dawley rat at 6 mg/kg/day, IG and measured on day 7 by LC-MS/MS analysis. It is filed as ADME, organism-based. Also noted: route […], dose 6 mg/kg/day, time 7 day. The conditions noted are these: in vivo, po.
A short description of data set [20]: Intrinsic clearance in Beagle dog liver microsomes preincubated for 10 mins under shaking condition followed by NADPH generating system addition and measured up to 60 mins by LC-MS/MS analysis. Type of data set: ADME, Canis lupus familiaris, Microsome. The settings on record: 1 h, time <=70 min.
A short description of data set [21]: Cmax in Sprague-Dawley rat assessed as AZ5104-D2 at 6 mg/kg/day, IG administered for 7 consecutive days by LC-MS/MS analysis. It is filed as ADME, organism-based. Also noted: route […], dose 6 mg/kg/day, time 7 day. The conditions noted are these: in vivo, po, 168 h.
For a further data set, the target named is T1, Cytochrome P450 2C8 (Homo sapiens, UniProt P10632).
T1 sequence (P10632 whole entry): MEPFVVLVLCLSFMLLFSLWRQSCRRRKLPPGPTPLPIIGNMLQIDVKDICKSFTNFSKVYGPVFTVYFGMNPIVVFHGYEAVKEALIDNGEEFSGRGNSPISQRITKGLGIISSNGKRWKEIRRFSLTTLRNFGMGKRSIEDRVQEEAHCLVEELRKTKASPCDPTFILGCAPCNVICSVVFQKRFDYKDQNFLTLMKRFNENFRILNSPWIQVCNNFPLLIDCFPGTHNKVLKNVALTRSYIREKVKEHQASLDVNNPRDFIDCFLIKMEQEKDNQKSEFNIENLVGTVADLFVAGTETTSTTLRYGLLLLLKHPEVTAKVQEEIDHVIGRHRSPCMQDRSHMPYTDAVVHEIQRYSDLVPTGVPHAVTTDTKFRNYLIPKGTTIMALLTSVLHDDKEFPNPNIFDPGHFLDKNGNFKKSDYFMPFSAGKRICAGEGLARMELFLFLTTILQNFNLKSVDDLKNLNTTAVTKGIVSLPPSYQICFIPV
The data set can be described thus: Inhibition of CYP2C8 in human liver microsomes using amodiaquine as substrate preincubated for 10 mins in presence of NADPH generating system followed by substrate addition and measured after 10 mins by LC-MS/MS analysis. It is filed as ADME.

Data set [22] is described as follows: Oral bioavailability in Sprague-Dawley rat at 6 mg/kg/day, IG administered for 7 consecutive days by LC-MS/MS analysis. The conditions noted are these: in vivo, time 7 day. It is filed as ADME, organism-based.
Data set [23] in a line: Tmax in Sprague-Dawley rat assessed as AZ5104-D2 at 6 mg/kg/day, IG administered for 7 consecutive days by LC-MS/MS analysis. It is filed as ADME, organism-based. The settings on record: in vivo, po, 168 h, time 7 day.

Consider `CS(=O)(=O)O.[2H]C([2H])=CC(=O)Nc1cc(Nc2nccc(-c3cn(C([2H])([2H])[2H])c4ccccc34)n2)c(OC)cc1N(C)CCN(C)C`, for which the Cmax in [1] is 46.7 nM; in data set [14], 277 nM; in data set [15], 113 nM; in data set [19], 180 nM; in data set [21], 0.395 nM. Besides, the values for the half-life at 24 h in “in vivo [2]” and in the data set “in vivo [10]” were 5.4 h and 4.04 h, respectively. Also, the Drug metabolism result in data set [3], in data set [4], in [5], in [6], in [9] and in [12] was “Metabolite_Detected” throughout. The Drug metabolism result in [16] and in [17] was “Metabolite_Detected” each time. Moreover, the CLint turned out to be 58.6 µL/min/mg in [7] and 61.3 µL/min/mg in [20]. For the same compound, the Tmax in [8] was found to be 5 h; in data set [18], 4.17 h; in data set [23], 6.8 h. Besides, the bioavailability in [11] came to 43%; in data set [22], 29.6%. Also, the Activity entry in data set [13] is “Non-Toxic”. In addition, the IC50 on Cytochrome P450 2C8 came out at 29.3 µM.
